Test results reported in ChEMBL document CHEMBL1139328, “4-Fluoro-N-butylphenylacetamide (H6) inhibits cell growth via cell-cycle arrest and apoptosis in human cervical cancer cells” (2009).
The source made the active and inactive calls. The rule behind the calls is not given here.

Experiments:
[1] = system: HeLa; test: Cytotoxicity against human HeLa cells by trypan blue exclusion method; assay type: functional, cell-based
[2] = system: Ca-Ski; test: Cytotoxicity against human CaSki cells by trypan blue exclusion method; assay type: functional, cell-based; details: TDE = time-dependent effect
[3] = system: Ca-Ski; test: Cell cycle arrest in human CaSki cells assessed as accumulation at G0/G1 phase after 8 hrs by flow cytometry; assay type: functional
[4] = system: Ca-Ski; test: Cell cycle arrest in human CaSki cells assessed as accumulation at S phase after 8 hrs by flow cytometry; assay type: functional
[5] = system: Ca-Ski; test: Cell cycle arrest in human CaSki cells assessed as accumulation at G2/M phase after 8 hrs by flow cytometry; assay type: functional
[6] = system: Ca-Ski; test: Induction of apoptosis in human CaSki cells at 1 mM after 8 hrs by TUNEL/DAPI double staining; assay type: functional
[7] = system: Ca-Ski; test: Cell cycle arrest in human CaSki cells assessed as accumulation at G0/G1 phase after 24 hrs by flow cytometry; assay type: functional
[8] = system: Ca-Ski; test: Cell cycle arrest in human CaSki cells assessed as accumulation at S phase after 24 hrs by flow cytometry; assay type: functional
[9] = system: Ca-Ski; test: Cell cycle arrest in human CaSki cells assessed as accumulation at G2/M phase after 24 hrs by flow cytometry; assay type: functional
[10] = system: Ca-Ski; test: Induction of apoptosis in human CaSki cells at 1 mM after 24 hrs by TUNEL/DAPI double staining; assay type: functional
[11] = system: Ca-Ski; test: Cell cycle arrest in human CaSki cells assessed as accumulation at G0/G1 phase after 48 hrs by flow cytometry; assay type: functional
[12] = system: Ca-Ski; test: Cell cycle arrest in human CaSki cells assessed as accumulation at S phase after 48 hrs by flow cytometry; assay type: functional
[13] = system: Ca-Ski; test: Cell cycle arrest in human CaSki cells assessed as accumulation at G2/M phase after 48 hrs by flow cytometry; assay type: functional
[14] = system: Ca-Ski; test: Induction of apoptosis in human CaSki cells at 1 mM after 48 hrs by TUNEL/DAPI double staining; assay type: functional
[15] = system: HeLa; test: Cell cycle arrest in human HeLa cells assessed as accumulation at G0/G1 phase after 8 hrs by flow cytometry; assay type: functional
[16] = system: HeLa; test: Cell cycle arrest in human HeLa cells assessed as accumulation at S phase after 8 hrs by flow cytometry; assay type: functional
[17] = system: HeLa; test: Cell cycle arrest in human HeLa cells assessed as accumulation at G2/M phase after 8 hrs by flow cytometry; assay type: functional
[18] = system: HeLa; test: Induction of apoptosis in human HeLa cells at 1 mM after 8 hrs by TUNEL/DAPI double staining; assay type: functional
[19] = system: HeLa; test: Cell cycle arrest in human HeLa cells assessed as accumulation at G0/G1 phase after 24 hrs by flow cytometry; assay type: functional
[20] = system: HeLa; test: Cell cycle arrest in human HeLa cells assessed as accumulation at S phase after 24 hrs by flow cytometry; assay type: functional
[21] = system: HeLa; test: Cell cycle arrest in human HeLa cells assessed as accumulation at G2/M phase after 24 hrs by flow cytometry; assay type: functional
[22] = system: HeLa; test: Induction of apoptosis in human HeLa cells at 1 mM after 24 hrs by TUNEL/DAPI double staining; assay type: functional
[23] = system: HeLa; test: Cell cycle arrest in human HeLa cells assessed as accumulation at G0/G1 phase after 48 hrs by flow cytometry; assay type: functional
[24] = system: HeLa; test: Cell cycle arrest in human HeLa cells assessed as accumulation at S phase after 48 hrs by flow cytometry; assay type: functional
[25] = system: HeLa; test: Cell cycle arrest in human HeLa cells assessed as accumulation at G2/M phase after 48 hrs by flow cytometry; assay type: functional
[26] = system: HeLa; test: Induction of apoptosis in human HeLa cells at 1 mM after 48 hrs by TUNEL/DAPI double staining; assay type: functional
[27] = system: Ca-Ski; test: Increase in p53 protein level in human CaSki cells at 1 mM after 24 hrs by Western blot; assay type: functional, cell-based
[28] = system: HeLa; test: Increase in p53 protein level in human HeLa cells at 1 mM after 24 hrs by Western blot; assay type: functional, cell-based
[29] = system: Ca-Ski; test: Increase in p53 protein level in human CaSki cells at 1 mM up to 48 hrs by Western blot; assay type: functional, cell-based
[30] = system: Ca-Ski; test: Decrease in CDK1 protein expression in human CaSki cells at 1 mM by Western blot; assay type: functional, cell-based
[31] = system: Ca-Ski; test: Decrease in CDK2 protein expression in human CaSki cells at 1 mM by Western blot; assay type: functional, cell-based
[32] = system: Ca-Ski; test: Decrease in cyclin A protein expression in human CaSki cells at 1 mM by Western blot; assay type: functional, cell-based
[33] = system: Ca-Ski; test: Decrease in cyclin B protein expression in human CaSki cells at 1 mM by Western blot; assay type: functional, cell-based
[34] = system: HeLa; test: Decrease in CDK1 protein expression in human HeLa cells at 1 mM by Western blot; assay type: functional, cell-based
[35] = system: HeLa; test: Decrease in CDK2 protein expression in human HeLa cells at 1 mM by Western blot; assay type: functional, cell-based
[36] = system: HeLa; test: Decrease in cyclin A protein expression in human HeLa cells at 1 mM by Western blot; assay type: functional, cell-based
[37] = system: HeLa; test: Decrease in cyclin B protein expression in human HeLa cells at 1 mM by Western blot; assay type: functional, cell-based
[38] = system: Ca-Ski; test: Increase in Bax protein expression in human CaSki cells at 1 mM by Western blot; assay type: functional, cell-based
[39] = system: HeLa; test: Increase in Bax protein expression in human HeLa cells at 1 mM by Western blot; assay type: functional, cell-based
[40] = system: Ca-Ski; test: Decrease in Bcl2 protein expression in human CaSki cells at 1 mM by Western blot; assay type: functional, cell-based
[41] = system: HeLa; test: Decrease in Bcl2 protein expression in human HeLa cells at 1 mM by Western blot; assay type: functional, cell-based
[42] = system: Ca-Ski; test: Effect on Bcl-Xl protein expression in human CaSki cells at 1 mM by Western blot; assay type: functional, cell-based
[43] = system: HeLa; test: Effect on Bcl-Xl protein expression in human HeLa cells at 1 mM by Western blot; assay type: functional, cell-based
[44] = system: Ca-Ski; test: Induction of apoptosis in human CaSki cells assessed as chromatin condensation at 1 mM after 48 hrs by TUNEL/DAPI double staining; assay type: functional, cell-based
[45] = system: HeLa; test: Induction of apoptosis in human HeLa cells assessed as chromatin condensation at 1 mM after 48 hrs by TUNEL/DAPI double staining; assay type: functional, cell-based
[46] = system: Ca-Ski; test: Induction of apoptosis in human CaSki cells assessed as nuclear DNA fragmentation at 1 mM after 48 hrs by TUNEL/DAPI double staining; assay type: functional, cell-based
[47] = system: HeLa; test: Induction of apoptosis in human HeLa cells assessed as nuclear DNA fragmentation at 1 mM after 48 hrs by TUNEL/DAPI double staining; assay type: functional, cell-based
[48] = system: Ca-Ski; test: Induction of cytosolic cytochrome c accumulation in human CaSki cells at 1 mM by SDS-PAGE; assay type: functional, cell-based; details: TDE = time-dependent effect
[49] = system: HeLa; test: Induction of cytosolic cytochrome c accumulation in human HeLa cells at 1 mM by SDS-PAGE; assay type: functional, cell-based; details: TDE = time-dependent effect
[50] = system: Ca-Ski; test: Induction of apoptosis in human CaSki cells assessed as proteolytic activation of caspase 9 at 1 mM by SDS-PAGE; assay type: functional, cell-based
[51] = system: HeLa; test: Induction of apoptosis in human HeLa cells assessed as proteolytic activation of caspase 9 at 1 mM by SDS-PAGE; assay type: functional, cell-based
[52] = system: Ca-Ski; test: Induction of apoptosis in human CaSki cells assessed as proteolytic activation of caspase 3 at 1 mM by SDS-PAGE; assay type: functional, cell-based
[53] = system: HeLa; test: Induction of apoptosis in human HeLa cells assessed as proteolytic activation of caspase 3 at 1 mM by SDS-PAGE; assay type: functional, cell-based
[54] = system: Ca-Ski; test: Induction of apoptosis in human CaSki cells assessed as caspase 3 activation by fluorogenic substrate based assay after 24 hrs; assay type: functional, cell-based
[55] = system: HeLa; test: Induction of apoptosis in human HeLa cells assessed as caspase 3 activation by fluorogenic substrate based assay after 24 hrs; assay type: functional, cell-based
[56] = system: Ca-Ski; test: Induction of apoptosis in human CaSki cells assessed as caspase 9 activation by fluorogenic substrate based assay after 48 hrs; assay type: functional, cell-based
[57] = system: HeLa; test: Induction of apoptosis in human HeLa cells assessed as caspase 9 activation by fluorogenic substrate based assay after 48 hrs; assay type: functional, cell-based

With `CCCCNC(=O)Cc1ccc(F)cc1` the Activity [1] was “Dose-dependent effect”, the Activity [2] was “tde” and the Activity [3] was 53.6%. The Activity [4] was 27.7%, the Activity [5] was 18.6% and the Activity [6] was 5.6%. The Activity [7] was 52.7%, the Activity [8] was 21% and the Activity [9] was 26.5%. It also gave an Activity [10] of 6%, an Activity [11] of 51.5% and an Activity [12] of 19.9%. For the same compound, the Activity [13] was 28.6%, the Activity [14] was 13.2% and the Activity [15] was 31.2%. The Activity [16] was 46.9%, the Activity [17] was 22.1% and the Activity [18] was 1.9%. For the same compound, the Activity [19] was 42.6%, the Activity [20] was 28.9% and the Activity [21] was 28.5%. For the same compound, the Activity [22] was 23.6%, the Activity [23] was 30.6% and the Activity [24] was 22.7%. The Activity [25] was 46.7%, the Activity [26] was 28.2% and the Activity [27] was “Active”. The Activity [28] was “Active”, the Activity [29] was “Active” and the Activity [30] was “Active”. The Activity [31] was “Active”, the Activity [32] was “Active” and the Activity [33] was “Active”. For the same compound, the Activity [34] was “Active”, the Activity [35] was “Active” and the Activity [36] was “Active”. The Activity [37] was “Active”, the Activity [38] was “Active” and the Activity [39] was “Active”. For the same compound, the Activity [40] was “Active”, the Activity [41] was “Active” and the Activity [42] was “inactive”. For the same compound, the Activity [43] was “inactive”, the Activity [44] was “Active” and the Activity [45] was “Active”. The Activity [46] was “Active”, the Activity [47] was “Active” and the Activity [48] was “tde”. For the same compound, the Activity [49] was “tde”, the Activity [50] was “Active” and the Activity [51] was “Active”. The Activity [52] was “Active”, the Activity [53] was “Active” and the Activity [54] was “Active”. The Activity [55] was “Active”, the Activity [56] was “Active” and the Activity [57] was “Active”.
